Assay results from PMC4830886, “Extended evaluation on the ES-D3 cell differentiation assay combined with the BeWo transport model, to predict relative developmental toxicity of triazole compounds” (Archives of Toxicology, 2015).

Experiments:
[1] = test system: BeWo b30 cell layers; test: in vitro BeWo transport model (placental transfer)
Description: (§1) To study placental transfer of test compounds, BeWo transport experiments were performed as described previously (Li et al. [2013]). Briefly, BeWo b30 cells (passages 27–45) were cultured in DMEM (Zwijndrecht, The Netherlands), supplemented with 10 % (v/v) heat-inactivated FCS (HyClone-Perbio, Etten-Leur, The Netherlands), 10,000 U/ml penicillin, 10 mg/ml streptomycin and 2 mM L-glutamine. The cells were seeded at a density of 1 × 10^5 cells/cm^2 on transwell® polycarbonate membranes (12 mm diameter, 0.4 μm pore size) (VWR International BV, Amsterdam, The Netherlands) coated with human placental collagen. The medium (0.5-ml apical compartment, 1.5-ml basolateral compartment) was replaced daily. At day 6 postseeding, the BeWo b30 cell layers were used for transport experiments. The barrier-forming capacity of the BeWo cell layers was evaluated by measuring the transepithelial electrical resistance (TEER) of the cell monolayer using a Millicell ERS-2 Volt-Ohm Meter (Millipore, USA) at day 6 postseeding as described previously (Li et al. [2013]). Only the cell layers showing TEER values between 80 and 100 Ω cm^2 were used for transport experiments.
(§2) Transport experiments were initiated by adding 0.5 ml of transport buffer Hank’s balanced salt solution (HBSS, Invitrogen, Breda, The Netherlands) containing the test compound, being 0594, 0595, 0596, 0599, 0600 and 0618, dissolved in DMSO (final solvent concentration 0.5 % DMSO), at concentration of 50 μM, to the apical compartment and 1.5 ml transport buffer to the basolateral compartment. Subsequently, the plate was incubated in a humidified atmosphere with 5 % CO2 at 37 °C. After 15, 30, 60 and 90 min, a sample of 0.2 ml was taken from the basolateral compartment and replaced by an equal volume of transport buffer. At the end of each experiment, a 0.2-ml sample was also taken from the apical compartment. Subsequently, the filters with the BeWo b30 cell layers were washed three times with PBS, cut out of the insert, dissolved in 0.25 ml 65 % (v/v) methanol and sonificated for 15 min in a Bandelin Sonorex RK100 (Berlin, Germany) in order to determine the amount of compound accumulated in the cells. After each experiment, mass balance calculations were performed. In each transport study, amoxicillin and antipyrine were included as control and reference compounds. Amoxicillin transport was included to assess for monolayer integrity since it is a compound known to be transported only to a limited extent across the placenta, whereas antipyrine was included as a control for optimal transport and a reference compound to enable calculation of relative transport rates (Li et al. [2013]). The transport of the six test compounds, as well as the reference compounds amoxicillin and antipyrine, through the permeable membrane of the transwell filter in the absence of BeWo cells was determined as well. […] For each test compound, three independent experiments were performed, with three technical replicates per experiment.
(§3) Samples were analyzed using high-performance liquid chromatography (HPLC) to quantify the amount of test compound in order to determine the transport rate and to perform mass balance calculations. The HPLC system used consisted of a Waters (Milford, MA) 600 controller and a 600 pump, equipped with a photodiode array detector set to record absorption of wavelengths between 200 and 400 nm. A Waters 717 plus autosampler was used for sample injection. The temperature of the autosampler was kept at 7 °C.
(§4) For analysis of all compounds, 50 μl sample was injected to a C18 5 μm reverse-phase column (150 mm × 4.6 mm I.D.) with a guard column (7.5 mm × 4.6 mm I.D.) (Alltech, Bergen op Zoom, The Netherlands). The mobile phase used for analysis of all the test compounds consisted of (A) 0.1 % trifluoroacetic acid in nanopure water and (B) HPLC-grade acetonitrile. Elution was at a flow rate of 0.8 ml/min, starting at 22 % B with a linear increase to 100 % B in 8 min.

[2] = in vitro BeWo transport model (placental transfer); conditions: human
Description: as §1, §2, §3, §4

CC1(C)S[C@@H]2[C@H](NC(=O)[C@H](N)c3ccc(O)cc3)C(=O)N2[C@H]1C(=O)O [Amoxicillin, amoxicillin, reference compound]
Intracellular accumulation (% of added amount) ([1]; BeWo cells, 50 μM (25 nmol) apical, at 90 min): 0 % of added amount | Papp at 30 min, 50 μM [2]: 6.5 ± 0.2 ×10⁻⁶ cm/s

Cc1cc(=O)n(-c2ccccc2)n1C [Antipyrine, antipyrine, reference compound]
Intracellular accumulation (% of added amount) ([1]; human, 90 min, 50 μM): 0 % of added amount | Relative Papp value ([1]; human, not told, 50 μM): 1.00 | Papp at 30 min, 50 μM [2]: 38.9 ± 3 ×10⁻⁶ cm/s
